Laboratory results published in patent publication US20140357577A1, “HIV Membrane Fusion Inhibitors” (priority 2011, published 2014).
Starred links: 1 amine or outer side, 2 acyl side, 3 side chain; linkers in the order of their positions; H or OH if unused. *: point of attachment. cholesteryl‑oxycarbonylmethyl = CC(C)CCC[C@@H](C)[C@H]1CC[C@H]2[C@@H]3CC=C4C[C@@H](OC(=O)C*)CC[C@]4(C)[C@H]3CC[C@]12C; cholesteryl‑succinyl = CC(C)CCC[C@@H](C)[C@H]1CC[C@H]2[C@@H]3CC=C4C[C@@H](OC(=O)CCC(=O)*)CC[C@]4(C)[C@H]3CC[C@]12C; Suc = O=C(CCC(=O)[*:2])[*:1]; Hexanoyl = CCCCCC(=O)*; Pentanoyl = CCCCC(=O)*

Key:
[1] = system: HIV mutant virus strain HXB2D with mutation Q40H in the gp41 gene; assay: Standard AVE, HXB2D site directed mutant Q40H; assay type: cell-based, HIV-1; conditions: fold change vs wild type strain HXB2D
From the text: (§1) • Standard Anti-Viral-Experiment “AVE” (wild type HIV strain IIIB+HIV strain HXB2D side directed mutants V38A and Q40H)
(§2) The HIV-1 replication assay measures virus replication (HIV wild type virus strain 111B or HXB2D, or a HIV mutant virus strain HXB2D with mutation V38A or Q40H in the gp41 gene) as an induction of enhanced green fluorescent protein (EGFP) expression. The indicator MT4-LTR-EGFP cells contain an EGFP gene under the control of the HIV-1 LTR promoter sequence. Successful HIV-1 infection results in viral Tat protein expression and subsequent induction of EGFP expression. Compounds/peptides inhibiting HIV-1 infection are expected to reduce EGFP expression as compared to the untreated HIV-infected control.
(§3) Serial 4-fold dilutions of test compounds/peptides were mixed with HIV-1 (IIIB, HXB2D, or a HXB2D mutant virus (V38A or Q40H)) and MT4-LTR-EGFP cells and incubated at 37° C. After 3 days, the wells were examined for EGFP expression using an argon laser-scanning microscope. The effective compound/peptide concentration inhibiting 50% of the virus-induced EGFP signal (EC50) was determined by linear interpolation of the EGFP signal vs. logarithm of the compound concentration; (T20, C34 and Sifuvirtide were added as reference compounds). For the V38A and Q40H mutant viruses, results were reported as a fold change in EC50, as compared with a drug-susceptible wild type strain HXB2D, which forms the backbone of the mutant virus. • Standard AVE (50% Human Serum)

HIV-IIIB + 50% HS = assay: Standard AVE (50% Human Serum), HIV-1 replication assay in MT4-LTR-EGFP cells; assay type: cell-based; conditions: fold change vs EC50 in the assay without human serum
From the text: The HIV-1 replication assay (with 50% human serum) measures virus replication as an induction of enhanced green fluorescent protein (EGFP) expression, in the presence of 50% human serum. The indicator MT4-LTR-EGFP cells contain an EGFP gene under the control of the HIV-1 LTR promoter sequence. Successful HIV-1 infection results in viral Tat protein expression and subsequent induction of EGFP expression. Compounds/peptides inhibiting HIV-1 infection are expected to reduce EGFP expression as compared to the untreated HIV-infected control. Compounds/peptides binding to human serum are expected to have a reduced activity for inhibiting the virus in the assay.
Serial 4-fold dilutions of test compounds/peptides were mixed with HIV-1 and MT4-LTR-EGFP cells and incubated at 37° C., in the presence of 50% human serum. After 3 days, the wells were examined for EGFP expression using an argon laser-scanning microscope. The effective compound/peptide concentration inhibiting 50% of the virus-induced EGFP signal (EC50) was determined by linear interpolation of the EGFP signal vs. logarithm of the compound concentration; T20, C34 and Sifuvirtide were added as reference compounds. Results were reported as a fold change in EC50, as compared with the acquired EC50 in the assay without human serum.

[2] = system: HIV wild type virus strain IIIB; assay: Standard Anti-Viral-Experiment (AVE), HIV-1 replication assay in MT4-LTR-EGFP cells, wild type IIIB; assay type: cell-based; conditions: 3 days, EGFP signal
From the text: as §1, §2, §3

Row | Substance | HIV-HXB2D Q40H mutant (fold change in EC50) [1] | HIV-IIIB + 50% HS (Fold change in EC50) (HIV-IIIB + 50% HS) | EC50 [2]
1 | Ac-ACYLACIEALIRKAQEQQEKNEAALR-NH2 [Peptide 48] | 62 | 1 | 3 nM
2 | Hexanoyl-ECYLACIEELIRKAQEQQEKNEAALR-NH2 (cysteine pairing not given here) [Peptide 42] | 27 | – | 1 nM
3 | Suc-ANYLALIEALIRAAQEQQEKNEAALRGSGC(cholesteryl-oxycarbonylmethyl)-NH2 (Suc-ANYLALIEALIRAAQEQQEKNEAALRGSGC(cholesteryl‑oxycarbonylmethyl)-NH2; SMILES CC[C@H](C)[C@H](NC(=O)[C@H](CC(C)C)NC(=O)[C@H](C)NC(=O)[C@H](CCC(=O)O)NC(=O)[C@@H](NC(=O)[C@H](CC(C)C)NC(=O)[C@H](C)NC(=O)[C@H](CC(C)C)NC(=O)[C@H](Cc1ccc(O)cc1)NC(=O)[C@H](CC(N)=O)NC(=O)[C@H](C)NC(=O)CCC(=O)O)[C@@H](C)CC)C(=O)N[C@@H](CCCNC(=N)N)C(=O)N[C@@H](C)C(=O)N[C@@H](C)C(=O)N[C@@H](CCC(N)=O)C(=O)N[C@@H](CCC(=O)O)C(=O)N[C@@H](CCC(N)=O)C(=O)N[C@@H](CCC(N)=O)C(=O)N[C@@H](CCC(=O)O)C(=O)N[C@@H](CCCCN)C(=O)N[C@@H](CC(N)=O)C(=O)N[C@@H](CCC(=O)O)C(=O)N[C@@H](C)C(=O)N[C@@H](C)C(=O)N[C@@H](CC(C)C)C(=O)N[C@@H](CCCNC(=N)N)C(=O)NCC(=O)N[C@@H](CO)C(=O)NCC(=O)N[C@@H](CSCC(=O)O[C@H]1CC[C@@]2(C)C(=CC[C@H]3[C@@H]4CC[C@H]([C@H](C)CCCC(C)C)[C@@]4(C)CC[C@@H]32)C1)C(N)=O) [Peptide 35] | 24 | – | 0.3 nM
4 | Ac-ECYLACIEELIRKAQEQQEKNEAALR-NH2 [Peptide 37] | 108 | 0.7 | –
5 | Ac-ANYLALIEALIRAAQEQQEKNEAALRGSGK(cholesteryl-succinyl)-NH2 (Ac-ANYLALIEALIRAAQEQQEKNEAALRGSGK(cholesteryl‑succinyl)-NH2; SMILES CC[C@H](C)[C@H](NC(=O)[C@H](CC(C)C)NC(=O)[C@H](C)NC(=O)[C@H](CCC(=O)O)NC(=O)[C@@H](NC(=O)[C@H](CC(C)C)NC(=O)[C@H](C)NC(=O)[C@H](CC(C)C)NC(=O)[C@H](Cc1ccc(O)cc1)NC(=O)[C@H](CC(N)=O)NC(=O)[C@H](C)NC(C)=O)[C@@H](C)CC)C(=O)N[C@@H](CCCNC(=N)N)C(=O)N[C@@H](C)C(=O)N[C@@H](C)C(=O)N[C@@H](CCC(N)=O)C(=O)N[C@@H](CCC(=O)O)C(=O)N[C@@H](CCC(N)=O)C(=O)N[C@@H](CCC(N)=O)C(=O)N[C@@H](CCC(=O)O)C(=O)N[C@@H](CCCCN)C(=O)N[C@@H](CC(N)=O)C(=O)N[C@@H](CCC(=O)O)C(=O)N[C@@H](C)C(=O)N[C@@H](C)C(=O)N[C@@H](CC(C)C)C(=O)N[C@@H](CCCNC(=N)N)C(=O)NCC(=O)N[C@@H](CO)C(=O)NCC(=O)N[C@@H](CCCCNC(=O)CCC(=O)O[C@H]1CC[C@@]2(C)C(=CC[C@H]3[C@@H]4CC[C@H]([C@H](C)CCCC(C)C)[C@@]4(C)CC[C@@H]32)C1)C(N)=O) [Peptide 69] | 11 | – | 0.3 nM
6 | Suc-ENYLALIEELIRKAQEQQEKNEAALR-NH2 (SMILES CC[C@H](C)[C@H](NC(=O)[C@H](CC(C)C)NC(=O)[C@H](C)NC(=O)[C@H](CC(C)C)NC(=O)[C@H](Cc1ccc(O)cc1)NC(=O)[C@H](CC(N)=O)NC(=O)[C@H](CCC(=O)O)NC(=O)CCC(=O)O)C(=O)N[C@@H](CCC(=O)O)C(=O)N[C@@H](CCC(=O)O)C(=O)N[C@@H](CC(C)C)C(=O)N[C@H](C(=O)N[C@@H](CCCNC(=N)N)C(=O)N[C@@H](CCCCN)C(=O)N[C@@H](C)C(=O)N[C@@H](CCC(N)=O)C(=O)N[C@@H](CCC(=O)O)C(=O)N[C@@H](CCC(N)=O)C(=O)N[C@@H](CCC(N)=O)C(=O)N[C@@H](CCC(=O)O)C(=O)N[C@@H](CCCCN)C(=O)N[C@@H](CC(N)=O)C(=O)N[C@@H](CCC(=O)O)C(=O)N[C@@H](C)C(=O)N[C@@H](C)C(=O)N[C@@H](CC(C)C)C(=O)N[C@@H](CCCNC(=N)N)C(N)=O)[C@@H](C)CC) [Peptide 19] | 151 | – | 1 nM
7 | SWETWEREIENYTRQIYRILEESQEQQDRNERDLLE [Sifuvirtide, reference compound] | 2 | – | 2 nM
8 | AC-ECYLACIEALIRAAQEQQEKNEAALR-NH2 [Peptide 45] | 64 | 1 | –
9 | Suc-ECYLRCIEELIRKAQEQQEKNEAALRGSGC(cholesteryl-oxycarbonylmethyl)-NH2 (Suc-ECYLRCIEELIRKAQEQQEKNEAALRGSGC(cholesteryl‑oxycarbonylmethyl)-NH2; cysteine pairing not given here) [Peptide 82] | – | 6 | 0.05 nM
10 | Ac-ACYIACIEALIRAAQEQQEKNEAALR-NH2 [Peptide 57] | – | 2 | 4 nM
11 | Pentanoyl-ECYLACIEALIRAAQEQQEKNEAALR-NH2 (cysteine pairing not given here) [Peptide 38] | 45 | – | 1 nM
12 | ANYLALIEALIRAAQEQQEKNEAALR [Peptide 6] | – | 0.7 | 5 nM
13 | Penlanoyl-ECYLACIEALIRAAQEQQEKNEAALR-NH2 (Pentanoyl-ECYLACIEALIRAAQEQQEKNEAALR-NH2; cysteine pairing not given here) [Peptide 39] | – | 5 | 7 nM
14 | ENYTRQIYRILEESQEQQDRNERDLL [Slfuvlrtlde-PBD, reference compound] | – | 0.8 | 36400 nM
15 | Pentanoyl-ECYLACIEELIRKAQEQQEKNEAALR-NH2 (cysteine pairing not given here) [Peptide 41] | 42 | – | 1 nM
16 | Ac-ACYAACIEALIRAAQEQQEKNEAALR-NH2 [Peptide 68] | >67 | 2 | –
17 | AC-ACYWACIEALIRAAQEQQEKNEAALR-NH2 [Peptide 63] | – | 3 | 7 nM
18 | Suc-ECYLACIEELIRKAQEQQEKNEAALR-NH2 (cysteine pairing not given here) [Peptide 90] | 65 | – | 1 nM
19 | Suc-ANYAALIEALIRAAQEQQEKNEAALR-NH2 (SMILES CC[C@H](C)[C@H](NC(=O)[C@H](CC(C)C)NC(=O)[C@H](C)NC(=O)[C@H](CCC(=O)O)NC(=O)[C@@H](NC(=O)[C@H](CC(C)C)NC(=O)[C@H](C)NC(=O)[C@H](C)NC(=O)[C@H](Cc1ccc(O)cc1)NC(=O)[C@H](CC(N)=O)NC(=O)[C@H](C)NC(=O)CCC(=O)O)[C@@H](C)CC)C(=O)N[C@@H](CCCNC(=N)N)C(=O)N[C@@H](C)C(=O)N[C@@H](C)C(=O)N[C@@H](CCC(N)=O)C(=O)N[C@@H](CCC(=O)O)C(=O)N[C@@H](CCC(N)=O)C(=O)N[C@@H](CCC(N)=O)C(=O)N[C@@H](CCC(=O)O)C(=O)N[C@@H](CCCCN)C(=O)N[C@@H](CC(N)=O)C(=O)N[C@@H](CCC(=O)O)C(=O)N[C@@H](C)C(=O)N[C@@H](C)C(=O)N[C@@H](CC(C)C)C(=O)N[C@@H](CCCNC(=N)N)C(N)=O) [Peptide 3] | – | 0.4 | 22 nM
